Here are results for four molecules from patent US7008531B2, “Treatment of circulating water systems” (Arch Chemicals Inc., priority 2000, dated 2006).

The structures appear in SMILES notation.

The subject of data set [1] is field isolated mustard algae. Description: Remedial laboratory study on algae (flask test, optical density after 5 days). It is filed as cell-based. The conditions noted are these: for Difference in performance between octadecylamine and dimethyloctadecylamine: 2.5 ppm with PHMB 4.0 ppm, summary of Table 2; for Comments (algae control) / Average Optical Density: Table 2, 5 days; for Average Optical Density: initial absorbance 0.10, <0.2 = algistatic or algicidal. As for the experimental part:
Remedial efficacy was evaluated in this example using field isolated mustard algae.
Studies were conducted in 125 ml flasks containing 6 mm borosilicate glass beads (50) and Jaworski's medium (50 ml). The flasks were inoculated with pooled cultures of mustard algae to achieve an initial absorbance of 0.10, as measured using a Milton Roy Spec 20 Spectrophotometer. […] The adjuvants identified in Table 2 were added at levels of 1.25 and 2.5 ppm active ingredient. Busan 20/20™ identified in Table 3 was added at levels of 0.625, 1.25, 2.5 and 5.0 ppm. The performance of the adjuvants were compared to the controls with and without PHMB. The flasks were closed using translucent caps, illuminated for 8 hours using a combination of fluorescent grow lamps and standard incandescent lamps each day and incubated at 80° F. for a period of 5 days. Algal growth was measured after 5 days using a Milton Roy Spec 20 spectrophotometer. The higher the optical density the heavier the growth.

Data set [2] can be described thus: Effect of adjuvant on water clarity (simulated swimming pool water, Hach Turbidimeter and visual inspection). The data set is classed as physicochemical. The settings on record: for Turbidity / Visual Observations: simulated pool water with PHMB 6-12 ppm, pH 7.2-7.8, circulated 24 hours; for Turbidity: 70±3° F.; for Effect on water clarity: summary of Table 4, simulated pool water with PHMB. As for the experimental part:
Six 10 gallon fish aquariums equipped with a heater and a recirculating pump (to simulate a swimming pool environment) were filled with simulated swimming pool water containing polyhexamethylene biguanide (PHMB) comprising:
The pH of the tanks was maintained between 7.2 and 7.8 and the water temperature was maintained at 70±3° F. After the chemical additions the water was circulated for 24 hours. The water in each tank was then visually inspected and tested for turbidity using a Hach Turbidimeter.

For data set [3], the system named is field isolated mustard algae. Description: Preventative laboratory study on algae (flask test, visual growth score). The data set is classed as cell-based. The conditions noted are these: for Average Visual Score: 10 days, 0-4 scale, any score >1 is a preventative failure. As for the experimental part: In preventative laboratory treatment studies, growth conditions are optimised to support a bloom. An experimental flask is prepared with a medium having optimised growth conditions to support a bloom, the medium in the flask is treated with a prescribed concentration of a test formulation, and then inoculated with a low concentration of a bloom-forming organism. The medium is monitored for a period of time to observe whether the formulation is effective at preventing an algal bloom.
These studies used the most problematic organisms, i.e. field isolated mustard algae.
The Jawaorski's medium was modified by the addition of 4 ppm polyhexamethylene biguanide (PHMB) (ex Avecia Inc.) to inhibit the growth of the bacteria present in the algal isolates. The inocula were harvested by aseptic vacuum filtration and the concentration of algal cell masses were combined (“pooled”) and redispersed in a aseptic medium to provide a concentrated pooled inoculum. The amount of inoculum used was varied to achieve an initial optical density of 0.010 in the test flasks. The optical density was determined using a Milton Roy Spec 20 spectrophotometer.
[…] Each flask was then inoculated with a prescribed amount of the pooled inoculum, so that the liquid in the flask had no visible green cast.

The mark [4] stands for this setting: adjuvant 1.25 ppm + PHMB 4.0 ppm.
[5] abbreviates: adjuvant 2.5 ppm + PHMB 4.0 ppm.

As for `CCCCCCCCCCCCCCCCCCN(C)C` [Dimethyloctadecylamine, dimethyloctadecylamine], in data set [1], the “Difference in performance between octadecylamine and dimethyloctadecylamine” value is listed as “no significant difference”. Moreover, in data set [1] (setting [4]), the “Comments (algae control)” value is recorded as “Control” and the “Average Optical Density” value was found to be 0.12. In addition, in data set [1] (setting [5]), the “Average Optical Density” value is 0.07.
Take `CCCCCCCCCCCCN` [Dodecylamine, dodecylamine]: the Turbidity is reported as 2.7 NTU in data set [2] (adjuvant 2.5 ppm), 1.8 NTU in data set [2] (adjuvant 5.0 ppm) and 2.5 NTU in data set [2] (adjuvant 10.0 ppm). Further, the “Visual Observations” value in data set [2] (adjuvant 2.5 ppm), in data set [2] (adjuvant 5.0 ppm) and in data set [2] (adjuvant 10.0 ppm) was “Clear” in each case. For the same molecule, the “Effect on water clarity” value in data set [2] is “no effect on water clarity”. Besides, the “Average Visual Score” value in data set [3] (setting [5]), in data set [3] (adjuvant 5.0 ppm + PHMB 4.0 ppm), in data set [3] (adjuvant 10.0 ppm + PHMB 4.0 ppm) and in data set [3] (adjuvant 15.0 ppm + PHMB 4.0 ppm) was 0 each time. In addition, the “Preventing the field isolated mustard algae outbreak, compared with PHMB alone” value in data set [3] (in combination with PHMB, summary of Table 1) is on record as “effectiveness”. In addition, the “Average Optical Density” value in data set [1] (setting [4]) was determined as 0.08; in data set [1] (setting [5]), 0.12. Besides, the “Comments (algae control)” value in data set [1] (setting [5]) is “Control”.
As for `CCCCCCCCCCCCCCCCCCN` [Octadecylamine, octadecylamine], the “Difference in performance between octadecylamine and dimethyloctadecylamine” value in data set [1] was “no significant difference”. Also, the “Comments (algae control)” value in data set [1] (setting [4]) is given as “Control”. Besides, the “Average Optical Density” value in data set [1] (setting [4]) amounted to 0.16; in data set [1] (setting [5]) it was 0.08.
As to `CCCCCCCCCCCCCCN` [Tetradecylamine, reference compound], the results for the Turbidity in data set [2] (adjuvant 5.0 ppm) and in data set [2] (adjuvant 10.0 ppm) were 10.1 NTU and 19.0 NTU, respectively. In addition, the “Visual Observations” value in data set [2] (adjuvant 5.0 ppm) and in data set [2] (adjuvant 10.0 ppm) was “Cloudy” in each case. Besides, the “Effect on water clarity” value in data set [2] is reported as “resulted in water turbidity”.
